ChEMBL document CHEMBL4342498, “Design and Discovery of an Orally Efficacious Spiroindolinone-Based Tankyrase Inhibitor for the Treatment of Colon Cancer” (J Med Chem, 2020)
Converted amounts (≈) assume the structure as drawn.

Assays:
[1] = system: MDR1; assay: Efflux ratio of permeability across basolateral to apical side over apical to basolateral side in MDCK2-MDR1 cells; assay type: ADME, cell-based, Canis lupus familiaris; conditions: dog, MDCK-MDR1
[2] = Net efflux ratio of permeability across basolateral to apical side over apical to basolateral side in MDCK2-MDR1 cells to MDCK2 cells; assay type: ADME, cell-based, Canis lupus familiaris; conditions: dog, mdck
[3] = Stability in mouse liver microsomes assessed as parent compound remaining at 1 uM measured after 60 mins in presence of NADPH by LC-MS/MS analysis; assay type: ADME, Microsome; conditions: read-out: Stability
[4] = Stability in human liver microsomes assessed as parent compound remaining at 1 uM measured after 60 mins in presence of NADPH by LC-MS/MS analysis; assay type: ADME, Microsome; conditions: read-out: Stability
[5] = Efflux ratio of permeability across basolateral to apical side over apical to basolateral side in MDCK2 cells; assay type: ADME, cell-based, Canis lupus familiaris, MDCK-II; conditions: dog, mdck
[6] = physchem; conditions: phosphate buffered saline, pH 7.4
[7] = target: T1, Tankyrase 1/2 (Homo sapiens, UniProt Q9H2K2+O95271); conditions: hek293
T1 sequence (Q9H2K2 whole entry): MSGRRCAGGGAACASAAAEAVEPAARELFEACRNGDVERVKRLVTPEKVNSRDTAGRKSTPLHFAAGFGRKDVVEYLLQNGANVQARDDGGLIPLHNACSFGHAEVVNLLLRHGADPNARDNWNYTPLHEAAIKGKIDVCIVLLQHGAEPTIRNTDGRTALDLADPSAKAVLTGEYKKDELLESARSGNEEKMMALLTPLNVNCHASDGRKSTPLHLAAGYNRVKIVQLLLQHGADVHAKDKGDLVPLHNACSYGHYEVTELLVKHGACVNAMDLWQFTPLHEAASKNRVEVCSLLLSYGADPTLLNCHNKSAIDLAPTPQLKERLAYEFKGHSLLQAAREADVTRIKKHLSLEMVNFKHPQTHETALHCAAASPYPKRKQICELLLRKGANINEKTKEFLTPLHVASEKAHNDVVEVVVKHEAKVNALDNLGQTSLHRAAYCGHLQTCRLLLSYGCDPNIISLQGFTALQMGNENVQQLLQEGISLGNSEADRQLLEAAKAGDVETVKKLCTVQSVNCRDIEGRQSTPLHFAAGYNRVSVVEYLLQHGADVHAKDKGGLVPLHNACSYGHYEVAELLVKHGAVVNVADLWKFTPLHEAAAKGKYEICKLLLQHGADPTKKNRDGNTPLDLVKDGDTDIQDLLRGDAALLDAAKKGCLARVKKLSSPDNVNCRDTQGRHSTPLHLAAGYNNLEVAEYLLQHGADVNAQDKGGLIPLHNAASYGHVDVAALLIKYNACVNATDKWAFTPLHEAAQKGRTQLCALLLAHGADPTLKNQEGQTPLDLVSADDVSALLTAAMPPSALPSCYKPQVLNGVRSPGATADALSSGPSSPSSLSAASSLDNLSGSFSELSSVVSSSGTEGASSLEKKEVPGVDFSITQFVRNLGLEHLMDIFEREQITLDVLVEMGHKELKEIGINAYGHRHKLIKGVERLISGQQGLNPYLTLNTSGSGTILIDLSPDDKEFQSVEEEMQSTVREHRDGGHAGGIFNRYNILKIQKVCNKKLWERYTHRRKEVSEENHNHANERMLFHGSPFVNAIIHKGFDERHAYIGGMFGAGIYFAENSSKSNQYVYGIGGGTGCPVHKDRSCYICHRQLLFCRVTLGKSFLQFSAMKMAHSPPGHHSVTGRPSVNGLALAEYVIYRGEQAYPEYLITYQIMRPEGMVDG
T1 sequence (O95271 whole entry): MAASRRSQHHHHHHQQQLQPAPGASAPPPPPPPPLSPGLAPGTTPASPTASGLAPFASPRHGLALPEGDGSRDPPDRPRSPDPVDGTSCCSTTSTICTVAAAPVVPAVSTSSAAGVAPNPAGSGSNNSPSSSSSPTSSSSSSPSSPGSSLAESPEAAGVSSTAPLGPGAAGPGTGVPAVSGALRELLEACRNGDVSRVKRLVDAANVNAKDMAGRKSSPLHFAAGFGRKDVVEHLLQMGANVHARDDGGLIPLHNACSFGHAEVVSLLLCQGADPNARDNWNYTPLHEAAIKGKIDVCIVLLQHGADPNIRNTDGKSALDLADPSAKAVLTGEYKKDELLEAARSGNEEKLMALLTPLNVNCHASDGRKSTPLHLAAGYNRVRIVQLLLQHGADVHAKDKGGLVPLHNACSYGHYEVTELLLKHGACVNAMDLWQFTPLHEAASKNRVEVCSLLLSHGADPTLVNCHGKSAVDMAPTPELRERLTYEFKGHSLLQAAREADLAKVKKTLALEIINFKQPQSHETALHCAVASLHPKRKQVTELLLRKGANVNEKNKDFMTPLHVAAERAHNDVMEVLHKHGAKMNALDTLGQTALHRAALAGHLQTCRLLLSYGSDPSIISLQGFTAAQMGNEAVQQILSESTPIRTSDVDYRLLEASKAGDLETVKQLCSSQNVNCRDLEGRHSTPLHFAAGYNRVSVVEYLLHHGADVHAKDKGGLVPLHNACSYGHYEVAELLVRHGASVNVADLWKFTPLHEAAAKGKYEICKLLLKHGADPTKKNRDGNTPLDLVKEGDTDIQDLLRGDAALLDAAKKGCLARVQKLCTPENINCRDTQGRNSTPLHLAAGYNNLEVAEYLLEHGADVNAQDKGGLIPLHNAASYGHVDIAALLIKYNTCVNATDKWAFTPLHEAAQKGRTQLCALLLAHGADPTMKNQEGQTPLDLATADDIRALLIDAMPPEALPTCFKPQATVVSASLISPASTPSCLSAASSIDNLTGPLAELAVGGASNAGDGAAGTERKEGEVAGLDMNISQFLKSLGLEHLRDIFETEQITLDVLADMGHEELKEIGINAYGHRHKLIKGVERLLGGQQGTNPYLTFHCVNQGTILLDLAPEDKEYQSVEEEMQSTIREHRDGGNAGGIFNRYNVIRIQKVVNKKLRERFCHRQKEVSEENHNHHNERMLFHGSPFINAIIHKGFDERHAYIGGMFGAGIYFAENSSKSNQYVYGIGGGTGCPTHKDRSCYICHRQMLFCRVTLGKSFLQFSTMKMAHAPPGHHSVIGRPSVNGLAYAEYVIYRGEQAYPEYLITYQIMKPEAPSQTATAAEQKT
Description: Inhibition of TNKS/TNKS2 (unknown origin) expressed in HEK293 cells assessed as reduction in Wnt-signaling measured after 24 hrs by TCF-luciferase reporter gene assay

[8] = target: T1, Tankyrase 1/2
Description: Inhibition of TNKS/TNKS2 (unknown origin) expressed in human DLD1 cells assessed as reduction in Wnt-signaling measured after 24 hrs by TCF-luciferase reporter gene assay

[9] = target: T2, Poly [ADP-ribose] polymerase tankyrase-1 (Homo sapiens, UniProt O95271)
T2 sequence (O95271 whole entry): T1 sequence (O95271 whole entry)
Description: Inhibition of recombinant human N-terminal TEV cleavage site-fused/FLAG-poly his-tagged TNKS SAM-PARP domain (1024 to 1327 residues) expressed in Escherichia coli assessed as reduction in auto-PARylation preincubated for 10 mins followed by biotinylated-NAD+ addition and measured after 45 mins by ELISA

[10] = system: COLO 320DM; assay: Antiproliferative activity against human COLO320DM cells assessed as inhibition of cell growth measured after 4 days by CellTiter-Glo assay; assay type: functional; conditions: 96 h
[11] = target: T3, Poly [ADP-ribose] polymerase tankyrase-2 (Homo sapiens, UniProt Q9H2K2); assay: Inhibition of recombinant human N-terminal TEV cleavage site-fused/FLAG-poly his-tagged TNKS2 ARC5-SAM-PARP domain (613 to 1166 residues) expressed in Escherichia coli assessed as reduction in auto-PARylation preincubated for 10 mins followed by biotinylated-NAD+ addition and measured after 45 mins by ELISA
T3 sequence (Q9H2K2 whole entry): T1 sequence (Q9H2K2 whole entry)

Structure (SMILES) | efflux ratio [1] | Ratio [2] | remaining at 1 h, 1 µM [3] | remaining at 1 h, 1 µM [4] | efflux ratio [5] | solubility at 1 h, 200 µM [6] | IC50 [7] | IC50 [8] | IC50 [9] | GI50 [10] | IC50 [11]
CN1CCCc2c1nc(N1CCC3(CC1)C(=O)N(C)c1cc(N4CCNCC4)cc(F)c13)[nH]c2=O | 9.1 | 1.3 | 63.7% | 28.6% | 6.8 | 97.3 µg/mL (≈ 202 µM) | 3.2 nM | 29.1 nM | 12.8 nM | 1120 nM | 23.4 nM
CN1CCCc2c1nc(N1CCC3(CC1)C(=O)N(C)c1cc(OCCO)cc(F)c13)[nH]c2=O | 14.9 | 2.4 | 0.7% | 19.8% | 6.2 | 75.1 µg/mL (≈ 164 µM) | 0.8 nM | 2.3 nM | 3.5 nM | 160 nM | 4.7 nM
CN1CCCc2c1nc(N1CCC3(CC1)C(=O)N(CC1COC1)c1cc(F)cc(F)c13)[nH]c2=O | 8.4 | 7 | 0.3% | 0% | 1.2 | 9.3 µg/mL (≈ 19.7 µM) | 0.3 nM | 7.2 nM | 7.8 nM | 200 nM | 12.2 nM
CN1CCCc2c1nc(N1CCC3(CC1)C(=O)N(C)c1cc(N4CCCCC4)cc(F)c13)[nH]c2=O | 2.3 | 2.3 | 10.5% | 1.5% | 1 | 5 µg/mL (≈ 10.4 µM) | 0.7 nM | 6.4 nM | 21.3 nM | 300 nM | 49.1 nM
CN1CCCc2c1nc(N1CCC3(CC1)C(=O)N(C)c1cc(N4CCOCC4)cc(F)c13)[nH]c2=O | 7.8 | 4.1 | 46.5% | 6.3% | 1.9 | 72.2 µg/mL (≈ 150 µM) | 0.1 nM | 2 nM | 14.9 nM | 100 nM | 10.5 nM
C[C@@H]1CN(c2cc(F)c3c(c2)N(C)C(=O)C32CCN(c3nc4c(c(=O)[nH]3)CCCN4C)CC2)C[C@H](C)N1 | 23.1 | 3.7 | 82.7% | 33% | 6.2 | 102 µg/mL (≈ 200 µM) | 0.1 nM | 4.3 nM | 11.1 nM | 850 nM | 20.2 nM
CN(C)c1cc(F)c2c(c1)N(C)C(=O)C21CCN(c2nc3c(c(=O)[nH]2)CCCN3C)CC1 | 2.7 | 2.5 | 1.8% | 1.8% | 1.1 | 7.4 µg/mL (≈ 16.8 µM) | 4.6 nM | 20.7 nM | 6.3 nM | 1170 nM | 13 nM
CN1CCCc2c1nc(N1CCC3(CC1)C(=O)N(CC(F)(F)F)c1cc(F)cc(F)c13)[nH]c2=O | 2 | 2.9 | 1% | 8% | 0.7 | 1.3 µg/mL (≈ 2.69 µM) | 0.2 nM | 2.4 nM | 16.2 nM | 70 nM | 32.4 nM

Continued by falling IC50 [9], values first:

efflux ratio [1] | Ratio [2] | remaining at 1 h, 1 µM [3] | remaining at 1 h, 1 µM [4] | efflux ratio [5] | solubility at 1 h, 200 µM [6] | IC50 [7] | IC50 [8] | IC50 [9] | GI50 [10] | IC50 [11] | Structure (SMILES)
0.5 | 1.3 | 100% | 100% | 0.4 | 92.1 µg/mL (≈ 200 µM) | 221 nM | 1185 nM | 28.5 nM | 12600 nM | 29.8 nM | CN1CCCc2c1nc(N1CCC3(CC1)C(=O)N(CC(=O)O)c1cc(F)cc(F)c13)[nH]c2=O
6.1 | 1.9 | 56% | 18.5% | 3.2 | 101 µg/mL (≈ 192 µM) | 2.5 nM | 5 nM | 12 nM | 1090 nM | 33.3 nM | CN1CCCc2c1nc(N1CCC3(CC1)C(=O)N(C)c1cc(OCCN4CCCCC4)cc(F)c13)[nH]c2=O
4.8 | 3.7 | 0.1% | 1.8% | 1.3 | 6.3 µg/mL (≈ 13.7 µM) | 0.3 nM | 3 nM | 10.3 nM | 50 nM | 11.7 nM | COCCN1C(=O)C2(CCN(c3nc4c(c(=O)[nH]3)CCCN4C)CC2)c2c(F)cc(F)cc21
29.1 | 5.7 | 41.4% | 1.5% | 5.1 | 101 µg/mL (≈ 192 µM) | 0.3 nM | 2.8 nM | 9.2 nM | 330 nM | 17.1 nM | CN1CCCc2c1nc(N1CCC3(CC1)C(=O)N(C)c1cc(OCCN4CCOCC4)cc(F)c13)[nH]c2=O
7.5 | 3.6 | 13.7% | 1.8% | 2.1 | 11.4 µg/mL (≈ 24.2 µM) | 0.1 nM | 1.3 nM | 4.8 nM | 50 nM | 6.4 nM | COCCOc1cc(F)c2c(c1)N(C)C(=O)C21CCN(c2nc3c(c(=O)[nH]2)CCCN3C)CC1
